Measured values: patent US11504363B2, “Method of treating cancer and bone cancer pain” (Exelixis, Inc., priority 2011, dated 2022)

Experiments:
xenograft tumor models = experiment: Xenograft tumor models; details: in vivo
[1] = system: CRPC patients with bone metastases; experiment: Phase 2 adaptive randomized discontinuation trial (RDT), Case Study 2; assay type: in vivo, human; details: for patients reporting improvements in bone pain: baseline bone pain; for patients achieving tumor regression / patients experiencing pain relief / patients reducing or eliminating need for narcotic analgesics / patients with marked declines in markers of bone turnover / patients free of disease progression at month 6: post hoc
Text: Data on bone pain and narcotic use, as assessed by the investigator, were collected retrospectively.

[2] = Phase 1 clinical study, tolerability; assay type: in vivo, human; details: most common adverse events: fatigue, diarrhea, anorexia, rash, palmar-plantar erythrodysesthesia
[3] = system: CRPC patients with evidence of bone metastases on bone scan; experiment: Phase 2 adaptive trial NCT00940225, first three CRPC patients with bone metastases (Case Study 1); assay type: in vivo, human
Experimental: In 2000, local disease recurrence was treated with radiation therapy. […] CAB with leuprolide and bicalutamide was initiated.

[4] = system: pancreatic neuroendocrine tumor model; experiment: Murine pancreatic neuroendocrine tumor model; details: mouse, in vivo
[5] = system: melanoma with bone metastases; experiment: Randomized discontinuation study, melanoma with bone metastases (Case Study 5); assay type: in vivo, human; details: 39 of 65 patients
[6] = system: differentiated thyroid cancer, bone metastasis to the skull; experiment: Phase 1 drug-drug trial, differentiated thyroid cancer with bone metastasis (Case Study 7); assay type: in vivo, human; details: one patient, after 9 weeks of treatment
[7] = system: renal cell carcinoma with bone metastases; experiment: Phase I trial, renal cell carcinoma with bone metastases (Case Study 4); assay type: in vivo, human
[8] = system: breast cancer with bone metastases; experiment: Randomized discontinuation study, breast cancer with bone metastases (Case Study 6); assay type: in vivo, human; details: of 10 evaluable for bone scan resolution (forty percent)
[9] = patients with bone scan resolution
[10] = patients without bone scan resolution

## COc1cc2nccc(Oc3ccc(NC(=O)C4(C(=O)Nc5ccc(F)cc5)CC4)cc3)c2cc1OC [Compound 1, N-(4-{[6,7-bis(methyloxy)quinolin-4-yl]oxy}phenyl)-N′-(4-fluorophenyl)cyclopropane-1,1-dicarboxamide]
Xenograft tumor models
  tumor effect in xenograft tumor models: causes tumor regression
[1]; 47 of 67 patients on narcotic analgesics at baseline
  patients able to decrease or discontinue narcotic medication for bone pain: 70%
[1]; 56 of 83 patients with bone metastases and bone pain at baseline, at either Week 6 or 12
  patients with pain improvement: 68%
[1]; 82 of 108 evaluable patients
  patients with resolution or stabilization of metastatic bone lesions on bone scan: 76%
[1]; anemic patients
  hemoglobin levels in anemic patients: Durable increases
[1]; complete resolution by bone scan (n=10)
  patients reporting improvements in bone pain: 80%
[1]; partial resolution by bone scan (n=32)
  patients reporting improvements in bone pain: 84%
[1]; stabilization of disease by bone scan (n=13)
  patients reporting improvements in bone pain: 38%
[1]; docetaxel-naïve patients (95% CI 24, upper limit not yet reached)
  median PFS: 24 weeks
[1]; docetaxel-pretreated patients (95% CI 18, 33)
  median PFS: 29 weeks
[1]; independent reviewer, 23 of n=108
  patients with stable disease (SD) on bone scan: 21%
[1]; independent reviewer, 82 of n=108
  subjects with partial or complete resolution of bone scan: 76%
[1]; independent reviewer, three of n=108
  patients with progressive disease in bone as best assessment: 3%
[1]; overall population excluding those randomized to placebo, n=154
  median PFS: 29 weeks
[1]; [9]
  patients achieving tumor regression: 78%
  patients experiencing pain relief: 83%
  patients reducing or eliminating need for narcotic analgesics: 68%
  patients with marked declines in markers of bone turnover: 60%
[1]; patients with bone scan resolution (complete or partial)
  patients free of disease progression at month 6: 61%
[1]; [10]
  patients achieving tumor regression: 58%
  patients experiencing pain relief: 43%
  patients reducing or eliminating need for narcotic analgesics: 33%
  patients with marked declines in markers of bone turnover: 43%
[1]; patients without bone scan resolution (stable or progressing bone scan)
  patients free of disease progression at month 6: 35%
[1]; randomized discontinuation phase
  reduction in the risk of progression compared with placebo: 87%
[1]; randomized discontinuation phase, patients with SD at week 12, Compound 1 group n=14 (95% CI: 11 weeks, upper limit not yet reached)
  investigator-assessed median PFS from week 12 onward: 21 weeks
[2]
  tolerability: generally well-tolerated
[3]; Patient 1
  Bone scan (best response): Complete resolution
  Hemoglobin (best response, change): +1.4 g/dL
  PSA (best response, change): −78%
  Pain (best response): Improvement
  tALP (best response, change): −77%
[3]; Patient 1, Week 6
  radiotracer uptake by bone metastases on bone scan: dramatic decrease
[3]; Patient 1, Week 12, stable through Week 18
  bone lesions on bone scan: near complete resolution
[3]; Patient 1, Week 18
  adverse event leading to withdrawal: Grade 3 diarrhea
[3]; Patient 1, four weeks after start
  bone pain: significant reduction
[3]; Patient 2
  Bone scan (best response): Improvement
  Hemoglobin (best response, change): +1.8 g/dL
  PSA (best response, change): +61%
  Pain (best response): Pain-free
  tALP (best response, change): −6%
[3]; Patient 2, Week 4
  bone pain: reduction in bone pain
[3]; Patient 2, Week 6
  radiotracer uptake by bone lesions on bone scan: slight flair
[3]; Patient 2, Week 12
  hemoglobin increase compared with baseline: 1.8 g/dL
  radiotracer uptake on bone scan: substantial reduction
[3]; Patient 2, by Week 16, placebo from Week 12, crossed over to Compound 1 at Week 15
  PSA peak: ~6 fold of baseline
[3]; Patient 2, by Week 18, subsequent to crossing over to Compound 1 from placebo
  PSA: 2 fold of baseline
[3]; Patient 3
  Bone scan (best response): Near resolution
  Hemoglobin (best response, change): +2.2 g/dL
  PSA (best response, change): −57%
  Pain (best response): Pain-free
  tALP (best response, change): −77%
[3]; Patient 3, Week 2
  hemoglobin increase compared with baseline: 2.2 g/dL
[3]; Patient 3, Week 6
  radiotracer uptake on bone scan: dramatic reduction
[3]; Patient 3, Week 12
  bone lesions on bone scan: complete resolution of bone lesions
[3]; Patient 3, after three weeks
  pain: complete resolution of pain
[4]
  overall survival: substantially improves
  tumor invasiveness and metastasis: significantly reduces
[5]
  patients with tumor shrinkage based on bone scan analysis: 60%
[6]
  response of skull bone metastasis as judged by MRI: dramatic response
[7]; one patient (FIG. 4)
  bone scan analysis: tumor shrinkage was observed
[7]; same patient, by seven weeks, continued until week 25
  narcotic use to control pain: substantially reduced narcotic use
[7]; second patient, pain score 5 on a scale of 10 at baseline, by four weeks, pain-free as of week 73
  pain: complete resolution of pain
[8]
  patients with tumor shrinkage based on bone scan analysis: 4 patients
